Results as given in BigSolDB 2.1.
Where “and” joins values, the source holds several entries; their conditions need not be identical. Equal values may be shown once.

C[C@@H](O[C@H]1OCCN(Cc2n[nH]c(=O)[nH]2)[C@H]1c1ccc(F)cc1)c1cc(C(F)(F)F)cc(C(F)(F)F)c1
Details | solubility (mole fraction)
in acetone, 284.75 K | 0.00512
in acetone, 289.85 K | 0.00582
in acetone, 291.45 K | 0.00601
in acetone, 295.95 K | 0.00663
in acetone, 299.85 K | 0.00719
in acetone, 301.45 K | 0.00741
in acetone, 303.75 K | 0.00778
in acetone, 305.65 K | 0.00808
in acetone, 307.55 K | 0.0084
in acetone, 313.85 K | 0.00955
in acetone, 317.75 K | 0.0104
in acetone, 324.65 K | 0.0118
in acetonitrile, 285.55 K | 0.000172
in acetonitrile, 289.55 K | 0.000196
in acetonitrile, 293.45 K | 0.000235
in acetonitrile, 295.95 K | 0.000262
in acetonitrile, 302.85 K | 0.000344
in acetonitrile, 304.35 K | 0.000368
in acetonitrile, 306.55 K | 0.000398
in acetonitrile, 309.55 K | 0.000444
in acetonitrile, 312.35 K | 0.000509
in acetonitrile, 318.85 K | 0.00063
in acetonitrile, 320.85 K | 0.00067
in acetonitrile, 327.95 K | 0.000853
in ethanol, 283.55 K | 0.00166
in ethanol, 290.85 K | 0.00209
in ethanol, 293.55 K | 0.00223
in ethanol, 295.95 K | 0.0024
in ethanol, 298.35 K | 0.00251
in ethanol, 301.55 K | 0.00279
in ethanol, 303.85 K | 0.00294
in ethanol, 306.25 K | 0.00316
in ethanol, 308.25 K | 0.00333
in ethanol, 315.25 K | 0.00396
in ethanol, 318.45 K | 0.00432
in ethanol, 324.85 K | 0.00505
in methanol, 284.45 K | 0.00314
in methanol, 288.75 K | 0.00343
in methanol, 292.15 K | 0.00374
in methanol, 296.35 K | 0.00405
in methanol, 298.45 K | 0.00422
in methanol, 300.75 K | 0.00445 and 0.00463
in methanol, 302.65 K | 0.00495
in methanol, 306.65 K | 0.00513
in methanol, 308.45 K | 0.00568
in methanol, 313.65 K | 0.00619
in methanol, 318.25 K | 0.00676
in n-butanol, 285.45 K | 0.00115
in n-butanol, 288.85 K | 0.00131
in n-butanol, 293.25 K | 0.00154
in n-butanol, 295.45 K | 0.00164
in n-butanol, 298.15 K | 0.00177
in n-butanol, 301.75 K | 0.002
in n-butanol, 303.75 K | 0.00219
in n-butanol, 306.35 K | 0.00235
in n-butanol, 308.85 K | 0.00258
in n-butanol, 313.45 K | 0.00292
in n-butanol, 317.45 K | 0.00335
in n-butanol, 322.25 K | 0.00392
in n-propanol, 283.75 K | 0.00127
in n-propanol, 290.75 K | 0.00162
in n-propanol, 294.75 K | 0.00187
in n-propanol, 296.95 K | 0.00198
in n-propanol, 298.55 K | 0.00207
in n-propanol, 300.15 K | 0.00215
in n-propanol, 303.05 K | 0.00241
in n-propanol, 306.25 K | 0.00262
in n-propanol, 308.75 K | 0.00285
in n-propanol, 314.35 K | 0.00331
in n-propanol, 318.35 K | 0.0037
in n-propanol, 325.35 K | 0.00463
